In US7968577B2 (Bristol-Myers Squibb Company, priority 2006, dated 2011) one finds Ki data, which are given here for 33 molecules.

The target of test [1] is T1, human glucocorticoid receptor (Homo sapiens, UniProt P04150).
T1 construct: purified human recombinant full-length glucocorticoid receptor; purchased Invitrogen Part #2893
T1 sequence (P04150 1-777): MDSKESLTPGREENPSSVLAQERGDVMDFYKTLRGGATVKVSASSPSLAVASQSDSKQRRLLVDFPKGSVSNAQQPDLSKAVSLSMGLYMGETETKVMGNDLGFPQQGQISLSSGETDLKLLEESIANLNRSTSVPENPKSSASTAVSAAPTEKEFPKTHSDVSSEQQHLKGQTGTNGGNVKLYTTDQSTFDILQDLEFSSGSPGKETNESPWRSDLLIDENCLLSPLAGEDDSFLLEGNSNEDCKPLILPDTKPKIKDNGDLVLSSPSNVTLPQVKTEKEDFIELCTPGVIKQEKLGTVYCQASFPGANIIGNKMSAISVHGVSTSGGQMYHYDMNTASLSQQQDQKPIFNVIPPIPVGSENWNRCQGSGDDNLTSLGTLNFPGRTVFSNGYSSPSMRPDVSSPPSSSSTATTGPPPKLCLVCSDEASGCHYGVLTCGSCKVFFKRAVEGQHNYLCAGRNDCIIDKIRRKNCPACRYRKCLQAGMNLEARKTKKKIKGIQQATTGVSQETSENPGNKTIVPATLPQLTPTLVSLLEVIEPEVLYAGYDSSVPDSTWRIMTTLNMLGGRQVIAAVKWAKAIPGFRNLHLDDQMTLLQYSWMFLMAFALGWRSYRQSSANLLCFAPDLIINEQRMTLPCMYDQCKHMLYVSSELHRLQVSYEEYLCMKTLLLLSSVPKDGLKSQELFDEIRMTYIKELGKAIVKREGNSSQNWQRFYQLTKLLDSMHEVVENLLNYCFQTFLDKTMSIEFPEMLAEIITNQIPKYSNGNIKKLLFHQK
The test can be described thus: Glucocorticoid Receptor Binding Assay (I), fluorescence polarization competitor kit (Fluormone GS Red). The note with it: GR Binding Assay (I). As for the experimental part:
Glucocorticoid Receptor Binding Assay (I)^a
In order to assess the affinity of test compounds for the human glucocorticoid receptor, a commercially available kit was used (Glucocorticoid Receptor Competitor Assay Kit, Invitrogen Part #2893). Briefly, purified human recombinant full-length glucocorticoid receptor (2 nM) was mixed with fluorescently labeled glucocorticoid (1 nM Fluormone GS Red) in the presence or absence of test compound. After two hour incubation at room temperature in the dark, the fluorescence polarization (FP) of the samples was measured. […] Test compounds were analyzed in the concentration range from 8.5 E-05 μM to 5 μM.
For orientation: Fluorescence polarisation rises when a labelled molecule tumbles more slowly, as on binding a larger partner.

For test [2], the target named is T2, human full-length glucocorticoid receptor (Homo sapiens, UniProt P04150).
T2 construct: recombinantly expressed human full-length glucocorticoid receptor; purchased PanVera Co., Madison, Wis; P2816
T2 sequence (P04150 1-777): T1 sequence (P04150 1-777)
The test can be described thus: Glucocorticoid Receptor Binding Assay (II), fluorescence polarization competitor kit (Fluormone GS1). The note with it: GR Binding Assay (II). The gist of the method:
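Cell lysate with recombinant receptor incubated with 1 nM Fluormone GS1 tracer, with or without test compound, for one hour at room temperature. Binding read as displacement by fluorescence polarization.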

The structures appear in SMILES notation.

Broadly, the Ki is a dissociation constant, usually derived from enzyme kinetics or from competition with a known ligand. Read a low Ki as higher affinity. In test [1], `COc1ccc(C(c2ccccc2)C(C)(C)C(=O)Nc2nncs2)cc1C` (single isomer, unassigned) [Example 294, 2,2-dimethyl-3-(3-methyl-4-(methyloxy)phenyl)-3-phenyl-N-1,3,4-thiadiazol-2-ylpropanamide] yielded a Ki of 9.22 nM. In other words, the single-digit nanomolar range.

As for `COc1ccc(C(c2ccccc2)C(C)(C)C(=O)Nc2nncs2)cc1C` (single isomer, unassigned) [Example 295, 2,2-dimethyl-3-(3-methyl-4-(methyloxy)phenyl)-3-phenyl-N-1,3,4-thiadiazol-2-ylpropanamide], in test [1], the affinity, expressed as Ki, was 13.9 nM.

Take `CC(C)(C)c1csc(NC(=O)C2(C(c3ccccc3)c3ccccc3)CCCC2)n1` [Example 151, N-(4-(1,1-dimethylethyl)-1,3-thiazol-2-yl)-1-(diphenylmethyl) cyclopentanecarboxamide]: the Ki in test [1] stood at 1150 nM.

Turning to `O=C(Nc1nccs1)C1(C(c2ccccc2)c2ccccc2)CCC1` [Example 153, 1-(diphenylmethyl)-N-1,3-thiazol-2-ylcyclobutanecarboxamide], the affinity in test [1] corresponds to a Ki of 23.2 nM.

Regarding `O=C(Nc1nccs1)C1(C(c2ccccc2)c2ccccc2)CCCCC1` [Example 156, 1-(diphenylmethyl)-N-1,3-thiazol-2-ylcyclohexanecarboxamide], in test [1], the Ki was 36.9 nM.

`CCC(CC)(C(=O)Nc1nccs1)C(c1ccccc1)c1ccccc1` [Example 159, 2-(diphenylmethyl)-2-ethyl-N-1,3-thiaozl-2-ylbutanamide] displayed a Ki in test [1] of 101 nM.

Turning to `CCC(C)(C(=O)Nc1nccs1)C(c1ccccc1)c1ccccc1` (stereo not drawn) [Example 176, 2-(diphenylmethyl)-2-methyl-N-1,3-thiazol-2-ylbutanamide], the affinity in test [1] corresponds to a Ki of 54 nM.

In test [1], `COc1ccc([C@@H](c2ccccc2)C(C)(C)C(=O)Nc2nncs2)cc1Br` [Example 292, (3R)-3-(3-bromo-4-(methyloxy)phenyl)-2,2-dimethyl-3-phenyl-N-1,3,4-thiadiazol-2-ylpropanamide] came in with a Ki of 24.5 nM.

Turning to `COc1ccc(C(c2ccccc2)C(C)(C)C(=O)Nc2nncs2)cc1C` (stereo not drawn) [Example 293, 2,2-dimethyl-3-(3-methyl-4-(methyloxy)phenyl)-3-phenyl-N-1,3,4-thiadiazol-2-ylpropanamide], the Ki in test [1] came to 9.85 nM.

As to `CC(C)(C(=O)Nc1nccs1)C(c1ccccc1)c1ccc(Cc2ccccc2)cc1` (stereo not drawn) [Example 319, 2,2-dimethyl-3-phenyl-3-(4-(phenylmethyl)phenyl)-N-1,3-thiazol-2-ylpropanamide], the Ki in test [1] is 386 nM.

The molecule `CC(C)(C(=O)Nc1nncs1)C(c1ccccc1)c1ccc(Cc2ccccc2)cc1` (stereo not drawn) [Example 320, 2,2-dimethyl-3-phenyl-3-(4-(phenylmethyl)phenyl)-N-1,3,4-thiadiazol-2-ylpropanamide] returned a Ki in test [1] of 187 nM.

As for `CC(C)(C(=O)Nc1nccs1)C(c1ccccc1)c1ccc(Oc2ccccc2)cc1` (stereo not drawn) [Example 321, 2,2-dimethyl-3-phenyl-3-(4-(phenyloxy)phenyl)-N-1,3-thiazol-2-ylpropanamide], the affinity in test [1] corresponds to a Ki of 5.68 nM.

For the molecule `CC(C)(C(=O)Nc1nncs1)C(c1ccccc1)c1ccc(Oc2ccccc2)cc1` (stereo not drawn) [Example 322, 2,2-dimethyl-3-phenyl-3-(4-(phenyloxy)phenyl)-N-1,3,4-thiadiazol-2-ylpropanamide], affinity in test [1] was put at a Ki of 5.17 nM.

Consider `CC(C)(C(=O)Nc1nncs1)C(c1ccccc1)c1ccc(Br)cc1` (stereo not drawn) [Example 323, 3-(4-bromophenyl)-2,2-dimethyl-3-phenyl-N-1,3,4-thiadiazol-2-ylpropanamide], for which affinity in test [1] was put at a Ki of 5.07 nM.

Consider `CC(C)(C(=O)Nc1nncs1)C(c1ccccc1)c1ccc(Br)cc1` (stereo not drawn) [Example 324, 3-(4-bromophenyl)-2,2-dimethyl-3-phenyl-N-1,3,4-thiadiazol-2-ylpropanamide], for which affinity in test [1] was put at a Ki of 9.36 nM.

Turning to `CC(C)(C(=O)Nc1nccs1)[C@H](c1ccccc1)c1ccc(O)c(C#N)c1` [Example 358], in test [2], the Ki turned out to be 22.9 nM.

Molecule `CC(=O)Oc1ccc([C@@H](c2ccccc2)C(C)(C)C(=O)Nc2nccs2)cc1` [Example 360, 4-((1R)-2,2-Dimethyl-3-oxo-1-phenyl-3-(1,3-thiazol-2-ylamino)propyl)phenyl acetate] registered a Ki in test [2] of 21.7 nM.

For `CC(C)(C(=O)Nc1nccs1)[C@H](c1ccccc1)c1ccc(OC(=O)c2ccco2)cc1` [Example 363, 4-((1R)-2,2-dimethyl-3-oxo-1-phenyl-3-(1,3-thiazol-2-ylamino)propyl)phenyl 2-furancarboxylate], in test [2], affinity was put at a Ki of 47 nM.

`CC(C)(C(=O)Nc1nccs1)[C@H](c1ccccc1)c1ccc(OC(=O)c2ccoc2)cc1` [Example 365, 4-((1R)-2,2-dimethyl-3-oxo-1-phenyl-3-(1,3-thiazol-2-ylamino)propyl)phenyl 3-furancarboxylate] returned a Ki in test [2] of 31.9 nM.

Take `CC(C)(C(=O)Nc1nccs1)[C@H](c1ccccc1)c1ccc(OC(=O)C2CCCO2)cc1` (stereo partly drawn) [Example 367, 4-((1R)-2,2-dimethyl-3-oxo-1-phenyl-3-(1,3-thiazol-2-ylamino)propyl)phenyl tetrahydro-2-furancarboxylate]: affinity in test [2] was put at a Ki of 26.9 nM.

With `CC(=O)c1ccc(C(c2ccccc2)C(C)(C)C(=O)Nc2nccs2)cc1` (stereo not drawn) [Example 368, 3-(4-Acetylphenyl)-2,2-dimethyl-3-phenyl-N-1,3-thiazol-2-ylpropanamide], the affinity in test [2], expressed as Ki, was 19.2 nM.

On to `CC(=O)c1cccc(C(c2ccccc2)C(C)(C)C(=O)Nc2nccs2)c1` (stereo not drawn) [Example 370, 3-(3-acetylphenyl)-2,2-dimethyl-3-phenyl-N-1,3-thiazol-2-ylpropanamide], for which the affinity in test [2], expressed as Ki, was 60.9 nM.

`CC(O)c1ccc(C(c2ccccc2)C(C)(C)C(=O)Nc2nccs2)cc1` (stereo not drawn) [Example 371, 3-(4-(1-Hydroxyethyl)phenyl)-2,2-dimethyl-3-phenyl-N-1,3-thiazol-2-ylpropanamide] displayed a Ki in test [2] of 38.1 nM. This Ki lies about 1.6-fold lower than the previous one.

`CC(O)c1ccc(C(c2ccccc2)C(C)(C)C(=O)Nc2nncs2)cc1` (stereo not drawn) [Example 372] yielded a Ki in test [2] of 96.1 nM.

`CC(O)c1cccc(C(c2ccccc2)C(C)(C)C(=O)Nc2nccs2)c1` (stereo not drawn) [Example 373, 3-(3-(1-hydroxyethyl)phenyl)-2,2-dimethyl-3-phenyl-N-1,3-thiazol-2-ylpropanamide]: the Ki in test [2] is 320 nM.

On to `CC(C)(C(=O)Nc1nccs1)C(c1ccccc1)c1ccc(-c2ccncc2)cc1` (stereo not drawn) [Example 375, 2,2-dimethyl-3-phenyl-3-(4-(4-pyridinyl)phenyl)-N-1,3-thiazol-2-ylpropanamide], for which, in test [2], the Ki came out at 11 nM.

Take `CC(C)(C(=O)Nc1nccs1)C(c1ccccc1)c1ccc(-c2ccoc2)cc1` (stereo not drawn) [Example 376, 3-(4-(3-furanyl)phenyl)-2,2-dimethyl-3-phenyl-N-1,3-thiazol-2-ylpropanamide]: the affinity in test [2], expressed as Ki, was 15.8 nM.

`COc1ccc(-c2ccc(C(c3ccccc3)C(C)(C)C(=O)Nc3nncs3)cc2)cc1` (stereo not drawn) [Example 377, 2,2-dimethyl-3-(4′-(methyloxy)-4-biphenylyl)-3-phenyl-N-1,3,4-thiadiazol-2-ylpropanamide] registered a Ki in test [1] of 1.81 nM. This lies in the single-digit nanomolar range.

In turn, `CN(C)C(=O)c1ccc(-c2ccc(C(c3ccccc3)C(C)(C)C(=O)Nc3nncs3)cc2)cc1` (stereo not drawn) [Example 379, 4′-(2,2-dimethyl-3-oxo-1-phenyl-3-(1,3,4-thiadiazol-2-ylamino)propyl)-N,N-dimethyl-4-biphenylcarboxamide] showed a Ki in test [1] of 1.24 nM.

Turning to `CN(C)C(=O)c1ccc(-c2ccc(C(c3ccccc3)C(C)(C)C(=O)Nc3nncs3)cc2)cc1` (stereo not drawn) [Example 380, 4′-(2,2-dimethyl-3-oxo-1-phenyl-3-(1,3,4-thiadiazol-2-ylamino)propyl)-N,N-dimethyl-4-biphenylcarboxamide], affinity in test [1] was put at a Ki of 24.2 nM.

For the molecule `CN(C)C(=O)c1ccc(-c2ccc(C(c3ccccc3)C(C)(C)C(=O)Nc3nccs3)cc2)cc1` (stereo not drawn) [Example 381, 4′-(2,2-dimethyl-3-oxo-1-phenyl-3-(1,3-thiazol-2-ylamino)propyl)-N,N-dimethyl-4-biphenylcarboxamide], the Ki in test [1] came to 3.53 nM.

Molecule `CC(C)Cc1ccc(-c2ccc(C(c3ccccc3)C(C)(C)C(=O)Nc3nncs3)cc2)cc1` (stereo not drawn) [Example 383, 2,2-dimethyl-3-(4′-(2-methylpropyl)-4-biphenylyl)-3-phenyl-N-1,3,4-thiadiazol-2-ylpropanamide] came in with a Ki in test [1] of 9.18 nM.

In turn, `CCCc1ccc(-c2ccc(C(c3ccccc3)C(C)(C)C(=O)Nc3nncs3)cc2)cc1` (stereo not drawn) [Example 384, 2,2-dimethyl-3-phenyl-3-(4′-propyl-4-biphenylyl)-N-1,3,4-thiadiazol-2-ylpropanamide] had a Ki in test [1] of 6.43 nM.
